Results reported in PubChem BioAssay AID1918938 (Molecular Pharmacology Branch, DTP, NCI, 2023).
“And” between values parts separate entries of the source, which are not always exact repeats. Equal entries are not always repeated.

System: 556581-035-R-J1-PDC complex spheroid viability
Experiment: Anticancer human tumor 556581-035-R-J1-PDC patient-derived ovarian carcinoma cell line growth inhibition
Details: for viability, T/C: stronger effect = lower value
Source text: Multicellular complex tumor spheroid response to LSD1 Inhibitor Iadademstat in combination with a variety of drugs and investigational agents in selected tumor cell lines
The current study was undertaken to assess response to LSD1 inhibitors in combination with standard-of-care drugs and investigational agents in solid tumor complex spheroid models as well as in the K-562 leukemia. Complex spheroids include a stromal component modeled by human endothelial cells (HUVEC) and fibroblasts modeled by human mesenchymal stem cells (MSCs). The concentration ranges selected for each drug and investigational agent were based upon clinically achievable concentrations if the clinical Cmax of the agent was known.
Compounds. The drugs and investigational agents used in this study are listed on Table 1. All of the agents used, including staurosporine (NSC755774) and gemcitabine (NSC613327), were obtained from the Developmental Therapeutics Program, NCI. FDA-approved anticancer drugs are available from the NCI at http://dtp.nci.nih.gov/branches/dscb/oncology_drugset_explanation.html. Drugs and investigational agents were >95% pure by proton nuclear magnetic resonance (NMR) and liquid chromatography/mass spectrometry (LC/MS). Stock solutions were prepared at 400x in DMSO, stored at -70 degrees C, and diluted in fresh medium prior to their use. The final concentration of DMSO in cell culture wells never exceeded 0.25% (v/v). The FDA-approved anticancer drug set is available from the Developmental Therapeutics Program at https://dtp.cancer.gov/organization/dscb/obtaining/available_plates.htm. All drugs and investigational agents were tested over a range starting from a high concentration at or near the clinical Cmax and decreasing in half-log increments. If the clinical Cmax for an agent had not been determined, the highest concentration tested was 10 microM.
Cell Lines. The patient-derived cancer cell (PDC) lines: 292921-168-R-J2-PDC, K24384-001-R-PDC, and 521955-158-R2-J5-PDC pancreatic carcinomas, 556581-035-R-J1 ovarian carcinoma, 324938-238-R-J1-PDC, 855422-203-R-J1-PDC and 883617-216-R-J1-PDC urothelial bladder carcinomas, 743489-274-T-PDC renal cell carcinoma, 138582-R-J1 Merkel cell tumor, K60290-347-R-J1 and K57222-313-R-J1-PDC glioblastomas, 653999-131-R-J2-PDC, LG0703-F948-PDC, and 349418-098-R-PDC non-small cell lung carcinomas, 885512-296-R-J2-PDC, 171881-019-R-J1-PDC breast carcinomas and 186277-243-T-J2-PDC and 233499-124-R-J2-PDC colon carcinomas were obtained from the NCI Patient-Derived Models Repository (PDMR, https://pdmr.cancer.gov). The established cell lines NCI/ADR-RES (RRID:CVCL_14520 and OVCAR-5 (RRID:CVCL_1628) ovarian carcinomas, 786-O (RRID:CVCL_1051) and A498 (RRID:CVCL_A498) renal cell carcinoma, NCI-H211 (ATCC, cat. CRL-5824; RRID:CVCL_1529), NCI-H196 (ATCC, cat. CRL-5823, RRID:CVCL_1509), SW 1271 (ATCC, cat. CRL-2177, RRID:CVCL_1716) and NCI-H1876 (ATCC, cat. CRL-5902, RRID:CVCL_1503) small cell lung carcinomas, MDA-MB-231 (RRID:CVCL_0062) and MDA-MB-468 (RRID:CVCL_0419)breast carcinomas (10-12). Pooled donor human umbilical vein endothelial cells (HUVEC, Lonza, cat. CC-2519) and human mesenchymal stem cells (hMSC, Lonza, cat. PT-2501) were purchased from Lonza (Walkersville, MD).
Cell Culture. All cells were maintained in an incubator at 37 degrees C and 5% CO2 with 95% humidity. The PDC lines were cultured according to standard operating procedures established by the NCI PDMR (https://pdmr.cancer.gov). Briefly all PDCs were thawed and cultured in Matrigel-coated flasks prepared with a working solution of 1X Ham's F-12 nutrient mix, without supplementation (Invitrogen, Waltham, MA, cat. 11765054), 100 U/mL penicillin-streptomycin (Invitrogen, cat. 15140122), and 2.5% Matrigel (Corning Inc., Corning, NY, cat. 354248) for the first three passages. […]
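Also: spheroids exposed to agents for seven days.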
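For viability, T/C in this document: 100% = DMSO vehicle control wells.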

Structure (SMILES) | viability, T/C (compound 0.00316 µM) | viability, T/C (compound 0.01 µM) | viability, T/C (compound 0.0316 µM) | viability, T/C (compound 0.1 µM) | IC50 (curve of compound) | viability, T/C (compound 0.316 µM) | viability, T/C (compound 1 µM) | viability, T/C (compound 0.00949 µM) | viability, T/C (compound 0.03 µM) | viability, T/C (compound 0.0949 µM) | viability, T/C (compound 0.3 µM) | further results
CC(C)CC(NC(=O)C(Cc1ccccc1)NC(=O)c1cnccn1)B(O)O (stereo not given) | 1.04% and 0.46% | 0.22% and 0.28% | 0.85% and 0.24% | 0.44% and 0.39% | < 0.316 nM |  |  |  |  |  |  | viability, T/C (compound 0.000316 µM): 7.73% and 2.05%; viability, T/C (compound 0.001 µM): 0.26% and 0.43%
CC(C)CC(NC(=O)CNC(=O)c1cc(Cl)ccc1Cl)B1OC(=O)CC(CC(=O)O)(C(=O)O)O1 (stereo not given) | 63.3% and 46% | 2.06% and 2.7% | 0.74% and 1.23% | 0.66% and 0.61% | 4.06 nM and 2.91 nM |  |  |  |  |  |  | viability, T/C (compound 0.000316 µM): 99.8% and 102%; viability, T/C (compound 0.001 µM): 98.2% and 102%
CC(C)c1c(-c2ccccc2)nc2c(C#N)c[nH]n2c1=O |  |  | 93.8% and 102% | 105% and 100% | > 10000 nM | 107% | 91.4% and 101% |  |  |  |  | viability, T/C (compound 3.16 µM): 75.4% and 90.9%; viability, T/C (compound 10 µM): 72.7% and 71.9%
CC1(C)CCC(CN2CCN(c3ccc(C(=O)NS(=O)(=O)c4ccc(NCC5CCOCC5)c([N+](=O)[O-])c4)c(Oc4cnc5[nH]ccc5c4)c3)CC2)=C(c2ccc(Cl)cc2)C1 |  |  | 97.5% and 84.5% | 95.1% and 89.4% | 4470 nM and 5040 nM | 85.2% and 79.3% | 81% and 90.1% |  |  |  |  | viability, T/C (compound 3.16 µM): 68.8% and 79.1%; viability, T/C (compound 10 µM): 13.5% and 7.08%
CC1COCCN1c1cc(-c2ccnn2C)c2ccnc(-c3ccn[nH]3)c2n1 (stereo not given) | 70% and 55.8% | 65.8% and 55.1% | 51.8% and 34.4% | 42.8% and 25.6% | 52.9 nM and 8.58 nM | 36.3% and 26.9% | 14.7% and 9.75% |  |  |  |  | 
CC1COCCN1c1cc(C2(S(C)(=N)=O)CC2)nc(-c2ccnc3[nH]ccc23)n1 (stereo not given) |  |  | 107% | 110% and 94.2% | > 10000 nM | 95.2% and 97.8% | 79.8% and 74.4% |  |  |  |  | viability, T/C (compound 3.16 µM): 68.2% and 69.1%; viability, T/C (compound 10 µM): 62.3% and 52.5%
CCN(c1cc(-c2ccc(CN3CCOCC3)cc2)cc(C(=O)NCc2c(C)cc(C)[nH]c2=O)c1C)C1CCOCC1 |  |  |  |  | 2010 nM and 895 nM |  |  | 101% and 102% | 105% and 88.1% | 87.8% and 88.1% | 81.4% and 79.2% | viability, T/C (compound 0.949 µM): 60.2% and 46.9%; viability, T/C (compound 3 µM): 44.3% and 24.2%
CC[C@@]1(O)C(=O)OCc2c1cc1n(c2=O)Cc2cc3c(CN(C)C)c(O)ccc3nc2-1 | 78.7% and 73.8% | 57.1% and 32.2% | 35.8% and 14% | 10% and 7.12% | 15.2 nM and 6.17 nM |  |  |  |  |  |  | viability, T/C (compound 0.000316 µM): 95.5% and 101%; viability, T/C (compound 0.001 µM): 96.8% and 101%
CCc1c2c(nc3ccc(O)cc13)-c1cc3c(c(=O)n1C2)COC(=O)[C@]3(O)CC |  |  |  |  | < 0.949 nM |  |  | 2.19% and 1.59% | 0.61% and 0.44% | 0.29% and 0.42% | 0.34% and 0.39% | viability, T/C (compound 0.000949 µM): 17.5% and 12%; viability, T/C (compound 0.003 µM): 11.2% and 9.45%
COc1cc(C2c3cc4c(cc3C(OC3OC5COC(C)OC5C(O)C3O)C3COC(=O)C23)OCO4)cc(OC)c1O (stereo not given) |  |  |  |  | 620 nM and 176 nM |  |  | 89% and 94.3% | 82.8% and 76.5% | 70% and 56.9% | 65.7% and 40.6% | viability, T/C (compound 0.949 µM): 41.2% and 33.2%; viability, T/C (compound 3 µM): 23.5% and 15.7%
COc1cc(Nc2ncc3c(n2)-c2ccc(Cl)cc2C(c2c(F)cccc2OC)=NC3)ccc1C(=O)O | 68.5% and 68.6% | 67.9% and 49.6% | 78.5% and 43.2% | 60.9% and 45.6% |  | 51.1% and 41.2% | 39.2% and 29.9% |  |  |  |  | 
COc1ccc([C@@H](O)c2cc(-c3ncnc4cc(N5CCOCC5)ccc34)c(F)cc2Cl)nn1 |  |  | 91.9% and 89.7% | 83.5% and 83.2% | 993 nM and 1070 nM | 66.5% and 63.4% | 50.3% and 48.7% |  |  |  |  | viability, T/C (compound 3.16 µM): 36.8% and 42.1%; viability, T/C (compound 10 µM): 29.6% and 27.5%
Cn1ncnc1C1c2n[nH]c(=O)c3cc(F)cc(c23)NC1c1ccc(F)cc1 (stereo not given) | 105% and 86.9% | 108% and 86.5% | 93.6% and 103% | 98.9% and 91.4% | > 100 nM |  |  |  |  |  |  | viability, T/C (compound 0.000316 µM): 102% and 114%; viability, T/C (compound 0.001 µM): 118% and 97.2%
NC1CC1c1ccc(-c2cccc(O)c2)cc1 (stereo not given) |  |  |  | 91.5% [middle of 4 runs] |  |  |  |  |  |  |  | viability, T/C (compound 3.16 µM): 89.2% [middle of 24 runs]; IC50 (compound alone, run of 02/21/2022): > 10000 nM
NC1CCC(NC2CC2c2ccccc2)CC1 (stereo not given) |  |  |  |  |  | 85.1% and 84.9% |  |  |  |  |  | IC50 (compound alone, run of 02/15/2022): > 10000 nM
NS(=O)(=O)OCC1CC(n2ccc3c(NC4CCc5ccccc54)ncnc32)CC1O (stereo not given) |  |  |  |  | > 3000 nM and 407 nM |  |  | 121% and 104% | 122% and 77% | 111% and 74% | 106% and 51.3% | viability, T/C (compound 0.949 µM): 91.9% and 37.8%; viability, T/C (compound 3 µM): 56.7% and 38%
Nc1ccccc1NC(=O)c1ccc(CNC(=O)OCc2cccnc2)cc1 |  |  |  |  | 133 nM and 97.8 nM |  |  | 88.5% and 100% | 82% and 76.7% | 56.3% and 50.2% | 30.6% and 28.9% | viability, T/C (compound 0.949 µM): 13.6% and 7.68%; viability, T/C (compound 3 µM): 1.18% and 0.51%
Nc1ccn(C2OC(CO)C(O)C2(F)F)c(=O)n1 (stereo not given) |  |  |  |  | 2.64 nM and 1.98 nM |  |  | 36% and 23.9% | 36.7% and 26.2% | 40.7% and 26.8% | 35.3% and 23.3% | viability, T/C (compound 0.000949 µM): 73.7% and 82.5%; viability, T/C (compound 0.003 µM): 48.6% and 31.7%
Nc1ncn(C2CC(O)C(CO)O2)c(=O)n1 (stereo not given) | 98.7% and 115% | 102% and 100% | 108% and 99.9% | 84.2% and 79.4% | > 1000 nM | 88.6% and 107% | 80.9% and 101% |  |  |  |  | 
Nc1ncn(C2CC(O)C(CO)S2)c(=O)n1 (stereo not given) |  |  |  |  | 184 nM and 48 nM |  |  | 94.5% and 81.4% | 75.4% and 63.8% | 56.8% and 32.5% | 45.3% and 17.8% | viability, T/C (compound 0.000949 µM): 92.4% and 104%; viability, T/C (compound 0.003 µM): 110% and 102%
O=C(C=Cc1cccc(S(=O)(=O)Nc2ccccc2)c1)NO |  |  |  |  | 111 nM and 68.4 nM |  |  | 88.8% and 89.7% | 77.9% and 83.8% | 54.2% and 35.2% | 23.9% and 15.3% | viability, T/C (compound 0.949 µM): 1.68% and 0.7%; viability, T/C (compound 3 µM): 0.32% and 3.39%
O=C(C=Cn1cnc(-c2cc(C(F)(F)F)cc(C(F)(F)F)c2)n1)NNc1cnccn1 | 84.8% | 82.9% and 87.8% | 83.4% and 74% | 68.8% and 37.2% | 329 nM and 67.6 nM |  | 15.9% and 3.46% |  |  |  |  | 
O=C(c1cc(Cc2n[nH]c(=O)c3ccccc23)ccc1F)N1CCN(C(=O)C2CC2)CC1 |  |  | 95.3% and 96.8% | 94.3% and 94.5% | > 10000 nM | 98.2% and 89.4% | 98.1% and 89.3% |  |  |  |  | viability, T/C (compound 3.16 µM): 87.5% and 78.2%; viability, T/C (compound 10 µM): 75.2% and 64.5%
